Source: PubChem BioAssay (NCI)
Where “and” joins values, the source holds several entries; their conditions need not be identical. Equal entries are not always repeated.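 Five concentrations, 48 hours, 96-well plates. Abbreviation: GI50, concentration required for 50% inhibition of growth. The concentration for full growth arrest is given as TGI.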

How the values were obtained:
Experiment in all cases: DTP human tumour cell line panel, 48 h
[1] = system: HCC-2998 colon
[2] = system: HL-60(TB) leukemia
[3] = system: HT29 colon
[4] = system: MALME-3M melanoma
[5] = system: MDA-MB-231 breast
[6] = system: MOLT-4 leukemia
[7] = system: OVCAR-4 ovarian
[8] = system: RPMI-8226 leukemia
[9] = system: SF-539 CNS
[10] = system: SR leukemia

| SMILES | GI50 [1] [µM] | TGI [1] [µM] | GI50 [2] [µM] | TGI [2] | GI50 [3] [µM] | TGI [3] [µM] | GI50 [4] [µM] | TGI [4] [µM] | GI50 [5] [µM] | TGI [5] [µM] | GI50 [6] [µM] | TGI [6] [µM] | GI50 [7] [µM] | TGI [7] [µM] | GI50 [8] [µM] | TGI [8] [µM] | GI50 [9] [µM] | TGI [9] [µM] | GI50 [10] [µM] | TGI [10] |
| --- | --- | --- | --- | --- | --- | --- | --- | --- | --- | --- | --- | --- | --- | --- | --- | --- | --- | --- | --- | --- |
| Cc1cc2c(cc1Cl)SC1=NN(C)C(c3ccccc3O)N1S2(=O)=O (stereo not drawn) | 65.5 | > 100 | > 100 | > 100 µM | > 100 | > 100 | > 100 | > 100 | 60.3 | > 100 | > 100 | > 100 | 51.5 | > 100 | > 100 | > 100 | 32.1 | > 100 | 36.6 | > 100 µM |
| COc1cc(C(=O)/C=C/c2c(C(F)(F)F)nc3sccn23)cc(OC)c1OC | 1.71 | 3.13 | 1.83 | 7.63 µM | 1.83 | 4.08 | 1.59 | 3.67 | 2.92 | 9.84 | 1.92 | 5.81 | 3.05 | 17.6 | 1.08 | 4.53 | 1.55 | 2.96 | 0.54 | 3.61 µM |
| O=c1[nH]c(-c2ccccn2)nc2sc3c(c12)CCCCCC3 | 26.2 | > 100 | 3.39 | > 100 µM | 7.69 | > 100 | – | – | 8.76 | > 100 | 2.41 | > 100 | 5.88 | > 100 | 3.63 | > 100 | 7.84 | > 100 | 0.864 | > 100 µM |
| COc1cc(C2c3cc4c(cc3[C@@H](Nc3cccc(O)c3)C3COC(=O)[C@H]23)OCO4)cc(OC)c1O (stereo partly drawn) | – | 8.81 | 0.23 | 0.802 µM and 2.73 µM | – | 18.8 | – | 11.2 | – | 24.2 | 0.1 | 0.911 | – | 37.6 | 0.45 | 9.31 | 0.482 | 4.53 | 0.0674 | 0.816 µM and 4.6 µM |
| C=CC[PH+](c1ccccc1)c1ccccc1.C=CC[PH+](c1ccccc1)c1ccccc1.[Cl][Pt][Cl] | 15 | 29.9 | 3.34 | 14 µM | 8.98 | 32.8 | 2.22 | 5.8 | 3.23 | 10.3 | 3.11 | 14 | 4.78 | 16.8 | 3.18 | 13.6 | 13.2 | 26.3 | 2.84 | 11.7 µM |
| O=[N+]([O-])c1cccc(-c2ncc(-c3ccc(Cl)cc3Cl)[nH]2)c1 | 7.36 | 16.4 | 3.8 | 17.3 µM | 1.88 | 4.79 | 3.69 | 8.84 | 11.7 | 30.9 | 2.49 | 6.34 | 3.18 | 12.1 | 1.08 | 4.68 | 15.4 | 29.3 | 0.471 | 2.44 µM |
